We go through 7 compounds from PubChem BioAssay (NCI).

Common to all, as to test: NCI anticancer screen, dose series, 48 h
The test system of experiment [1] is HCC-2998 colon.
Experiment [2] concerns HCT-15 colon.
The test system of experiment [3] is HS 578T breast.
Experiment [4] relates to MDA-MB-435.
The test system of experiment [5] is SF-268 CNS.
Experiment [6] concerns SF-539 CNS.
In experiment [7] the test system is SK-MEL-28 melanoma.
For experiment [8], the system named is SNB-75 CNS.
The test system of experiment [9] is T-47D breast.
For experiment [10], the system named is UACC-257 melanoma.

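Briefly, cells in 96-well plates were exposed to five compound concentrations for 48 h, and endpoints were estimated by linear interpolation. Here, GI50 denotes the concentration required for 50% inhibition of growth. TGI: total growth inhibition.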 Bounds are passed on as bounds.

Consider `CC1(C)C(=O)/C(=C\c2cccnc2)C[C@]2(C)[C@H]3CC[C@@H]4[C@H]5[C@H](C(=O)/C=C/c6cccnc6)CC[C@]5(C(=O)O)CC[C@@]4(C)[C@]3(C)CC[C@@H]12`, for which the GI50 in experiment [1] is 1.88 µM; in experiment [2], 1.76 µM; in experiment [3] it was 7.61 µM; in experiment [4] it was 3.2 µM; in experiment [5], 2.15 µM; in experiment [6] it was 1.9 µM. The GI50 in experiment [7] was 2.16 µM; in experiment [8], 4.01 µM; in experiment [9] it was 3.75 µM; in experiment [10], 1.88 µM. The TGI in [1] was 3.55 µM; in [2] it was 4.54 µM; in experiment [3], > 100 µM; in experiment [4] it was 12.9 µM; in experiment [5], 5.46 µM; in [6], 3.92 µM. In addition, the TGI in experiment [7] amounted to 4.39 µM; in experiment [8], 44.2 µM; in experiment [9], 24.6 µM; in experiment [10], 4.25 µM.

For the compound `COc1c(C(=O)/C=C/c2ccccc2)c(O)cc2occc12`, the GI50 was 3.76 µM in [1]; 5.25 µM in experiment [2]; 2.76 µM in [3]; 3.21 µM in experiment [4]; 4.05 µM in [5]; 3.22 µM in [6]. Further, the GI50 in [7] was 7.03 µM; in experiment [8] it was 2.42 µM; in [9], 10.5 µM; in experiment [10], 7.01 µM. Besides, the TGI was 14.3 µM in experiment [1]; 22.7 µM in experiment [2]; 8.36 µM in experiment [3]; 13.2 µM in experiment [4]; 13.7 µM in experiment [5]; 13.5 µM in experiment [6]. Further, the TGI in experiment [7] stood at 20.7 µM; in experiment [8] it was 15.1 µM; in [9] it was 32.4 µM; in experiment [10] it was 19.7 µM.

In the case of `CC(C)c1ccc(-c2cc(-c3cn[nH]c3-c3ccccn3)ccn2)cc1`, the GI50 was 10.4 µM in experiment [1]; 8.65 µM in experiment [2]; > 16.2 µM in experiment [3]; 9.42 µM in [4]; 14.9 µM in [5]; 25 µM in experiment [6]. For the same compound, the GI50 is > 25 µM in experiment [7], > 9.11 µM in experiment [8], 6.96 µM in [9] and > 25 µM in experiment [10]. The TGI in experiment [1], in experiment [2], in [3], in [4], in [5] and in [6] was > 25 µM each time. The TGI in experiment [7] was > 25 µM; in [8], > 25 µM; in experiment [9], > 23.7 µM; in [10], > 25 µM.

Turning to `CN1CCN(CCCNc2nc3ccc(Oc4ccc(NC(=O)Nc5cc(C(F)(F)F)ccc5F)cc4)cc3[nH]2)CC1`, the GI50 in experiment [1] is 4.35 µM; in [2] it was > 25 µM; in experiment [3], 3.67 µM; in [4], 4.1 µM; in experiment [5] it was 4.17 µM; in experiment [6], 4.22 µM. For the same compound, the GI50 in [7] was 4.24 µM; in experiment [8], 5.14 µM; in [9] it was 3.43 µM; in [10], 4.02 µM. For the same compound, the TGI was 8.1 µM in experiment [1]; > 25 µM in experiment [2]; 8.26 µM in experiment [3]; 7.78 µM in [4]; 8.04 µM in experiment [5]; 8.52 µM in experiment [6]. Further, the TGI turned out to be 7.73 µM in [7], 13.2 µM in experiment [8], 7.21 µM in experiment [9] and 7.93 µM in experiment [10].

For `COc1cc(OC)c(C(=O)/C=C/c2cccc(C(F)(F)F)c2)c(OC)c1`, the GI50 in experiment [1] was 2.11 µM; in [2], 0.942 µM; in [3] it was 3.93 µM; in experiment [4], 1.61 µM; in experiment [5] it was 1.64 µM; in experiment [6] it was 1.37 µM. The GI50 in [7] was 1.51 µM; in experiment [8], 1.88 µM; in experiment [9], 1.61 µM; in experiment [10], 2.06 µM. In addition, the TGI in experiment [1] was 6.89 µM; in experiment [2] it was 2.68 µM; in [3], 28.6 µM; in [4] it was 6.57 µM; in experiment [5] it was 6.13 µM; in experiment [6], 3.5 µM. In addition, the TGI in experiment [7] was 4.74 µM; in [8], 7.9 µM; in experiment [9] it was 9.43 µM; in experiment [10], 7.89 µM.

For the compound `CC(C)c1c(O)c(O)c2c(c1O)C(=O)C(O)=C1C(C)(C)CCC[C@@]12C`, the TGI in experiment [1] came to 10.4 µM; in experiment [2], 13.2 µM; in experiment [3], 43.5 µM; in experiment [4], 10.1 µM; in experiment [5], 20 µM; in experiment [6], 14.8 µM. Moreover, the TGI in experiment [7] stood at 17.7 µM; in experiment [8], 8.12 µM; in [9], 16.5 µM; in [10] it was 8.61 µM.

`C/C(=N\Nc1ccc(Cl)cn1)c1ccc2ccccc2n1`: the GI50 in experiment [1] is 3.23 µM; in [2], 0.64 µM; in [3], 4.78 µM; in experiment [4], 4.45 µM; in experiment [5] it was 2.75 µM; in [6] it was 2.57 µM. For the same compound, the GI50 in experiment [7] is 3.6 µM; in experiment [8], 3.3 µM; in experiment [9] it was 3.48 µM; in [10], 5.33 µM. For the same compound, the TGI in experiment [1] was > 100 µM; in experiment [2], > 100 µM; in experiment [3], > 100 µM; in experiment [4], > 100 µM; in experiment [5], > 100 µM; in experiment [6], 27.6 µM. Further, the TGI in experiment [7] is > 100 µM; in [8] it was > 100 µM; in experiment [9] it was 68.4 µM; in experiment [10], 97.3 µM.
